# Results from BindingDB's records for doi:10.1021/jm401801t (University of Geneva, 2014).
# Legend:
# [1] = Inhibition of human HSP90alpha expressed in yeast assessed as growth inhibition of host after 72 hrs
# [2] = Inhibition of human HSP90beta expressed in yeast assessed as growth inhibition of host after 72 hrs
compound,measurement,setting,value
COCC(=O)Nc1c(C(=O)OC)n(CCC(C)C)c2ncc(NC(C)CCC=C(C)C)cc12 (configuration not stated),IC50,[1],308 µM
same,IC50,[2],120 µM
